ChEMBL document CHEMBL1201862, “PubChem BioAssay data set” (2004)
Active and inactive are the calls of the source.

What was measured:
Nonstructural protein 1 = Nonstructural protein 1 (Influenza A virus, UniProt Q194T2); format: functional, Influenza A virus (A/California/07/2009(H1N1))
[1] = HepG2 cell cytotoxicity, dose response, cytotoxicity control, ATP luminescence, cherry-pick, activator set 2 (AID 1053143); format: functional, cell-based
Paired box protein Pax-8 = Paired box protein Pax-8 (Homo sapiens, UniProt Q06710); test: inhibitors of PAX8-driven TPO luciferase reporter, dose response, RMG-I cells, cherry-pick (AID 687027); format: functional, cell-based;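 also: luciferase reporter driven by Pax8 target thyroperoxidase promoter measured by SteadyGlo luminescence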
Chain of Paired box protein Pax-8 (Q06710 whole entry): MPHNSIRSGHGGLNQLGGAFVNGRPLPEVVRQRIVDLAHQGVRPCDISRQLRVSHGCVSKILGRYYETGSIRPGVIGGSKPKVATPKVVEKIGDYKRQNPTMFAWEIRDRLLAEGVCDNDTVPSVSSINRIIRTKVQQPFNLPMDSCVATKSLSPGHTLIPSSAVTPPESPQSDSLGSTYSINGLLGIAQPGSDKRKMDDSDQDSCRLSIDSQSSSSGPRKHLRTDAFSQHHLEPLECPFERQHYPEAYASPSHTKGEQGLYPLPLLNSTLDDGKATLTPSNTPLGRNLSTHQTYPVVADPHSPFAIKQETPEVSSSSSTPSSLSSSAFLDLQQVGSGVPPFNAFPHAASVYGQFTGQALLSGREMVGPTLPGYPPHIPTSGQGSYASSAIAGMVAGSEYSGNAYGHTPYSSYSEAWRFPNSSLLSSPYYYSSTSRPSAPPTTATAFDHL

[2] = HEK293T cytotoxicity, dose response, cytotoxicity control for miR-122 modulator project, cell-based, activator set, cherry-pick (AID 720690); format: functional;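 also: HEK293T human cells scored for general mammalian cytotoxicity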
[3] = A549 cell cytotoxicity, dose response, cytotoxicity control, 24 h, CellTiter-Glo luminescence, cherry-picks (AID 1053115); format: functional, cell-based; details: A549, 24 h
[4] = A549 cell cytotoxicity, dose response, CellTiter-Glo luminescence, dry powder, set 17 (AID 1117284); format: functional, cell-based
[5] = HEK293T cytotoxicity, dose response, cytotoxicity control for miR-122 modulator project, cell-based, inhibitor set, cherry-pick, set 2 (AID 720697); format: functional
[6] = miR-122 activators in hepatoma reporter cells, dose response, cell-based, Huh7 psiCHECK-miR122, Renilla luciferase, cherry-picked (AID 651956); format: functional;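 also: huh7 hepatoma cells stably carrying a psiCHECK-2 miR-122 sensor plasmid; renilla luciferase signal reporting endogenous miR-122 activity after 48 h compound exposure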
[7] = HepG2 cell cytotoxicity, dose response, cytotoxicity control, plate reader, dry powder samples (AID 1159569); format: functional, cell-based;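 also: inhibitor potency with signal falling toward the positive control level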
[8] = P. falciparum 3D7-ScDHODH growth inhibitors, dose response, SYBR Green, dry powder samples (AID 1159570); format: functional, cell-based;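 also: parasite growth measured after 72 hours of compound exposure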
[9] = P. falciparum Dd2 growth inhibitors, dose response, SYBR Green, cherry-picked samples (AID 1159567); format: functional, cell-based
[10] = P. falciparum ATP4 D1247Y mutant growth inhibitors, dose response, NITD609-resistant line, SYBR Green, dry powder (AID 1159571); format: functional, cell-based;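 also: parasites synchronized at ring stage by sorbitol before testing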
[11] = P. falciparum Dd2 growth inhibitors, dose response, SYBR Green, dry powder samples (AID 1159566); format: functional, cell-based;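 also: potency for growth inhibition with lower SYBR green DNA signal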
[12] = inhibitors of clade B AD8 Env fusion, dose response, cell-based, cherry-pick (AID 652062); format: functional;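 also: luciferase signal from cell-cell fusion driven by HIV-1 clade B AD8 Env; potency is for inhibitors of fusion seen as a drop in luminescence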
[13] = P. falciparum Dd2 growth inhibitors, dose response, SYBR Green, dry powder samples, set 9 (AID 1159568); format: functional, cell-based
[14] = MITF Orthogonal Assay: SK-MEL-5 CTG Assay Measured in Cell-Based System Using Plate Reader - 2084-02_Inhibitor_Dose_DryPowder_Activity_Set7.; format: functional
[15] = MITF: Counter assay: A375 proliferation Measured in Cell-Based System Using Plate Reader - 2084-03_Inhibitor_Dose_DryPowder_Activity_Set8.; format: functional; details: A-375
[16] = TRPM1 promoter luciferase reporter signal decrease, dose response, MITF inhibitor project, cell-based, SK-MEL-5, dry powder, set 8 (AID 624430); format: functional
[17] = Late stage assay provider results from the probe development effort to identify selective inhibitors of heat shock protein 90 (HSP90): Absorbance-based cell proliferation assay in MCF7 cells.; format: functional
[18] = Late stage assay provider results from the probe development effort to identify selective inhibitors of heat shock protein 90 (HSP90): Absorbance-based cell proliferation assay in SKBR3 cells.; format: functional; details: SK-BR-3
[19] = Luminescence-based cell-based high throughput dose response assay to identify activators of the DAF-12 from the parasite S. stercoralis (ssDAF-12).; format: functional
[20] = biological target: T1, Oxysterols receptor LXR-beta (Homo sapiens, UniProt P55055); test: LXR agonists, Gal4 luciferase reporter, dose response, counter-screen for ssDAF-12 agonist project, cell-based, luminescence, HEK293, S. stercoralis campaign (AID 720737); format: functional; details: read-out: IC50 (the source's name)
T1 sequence (P55055 whole entry): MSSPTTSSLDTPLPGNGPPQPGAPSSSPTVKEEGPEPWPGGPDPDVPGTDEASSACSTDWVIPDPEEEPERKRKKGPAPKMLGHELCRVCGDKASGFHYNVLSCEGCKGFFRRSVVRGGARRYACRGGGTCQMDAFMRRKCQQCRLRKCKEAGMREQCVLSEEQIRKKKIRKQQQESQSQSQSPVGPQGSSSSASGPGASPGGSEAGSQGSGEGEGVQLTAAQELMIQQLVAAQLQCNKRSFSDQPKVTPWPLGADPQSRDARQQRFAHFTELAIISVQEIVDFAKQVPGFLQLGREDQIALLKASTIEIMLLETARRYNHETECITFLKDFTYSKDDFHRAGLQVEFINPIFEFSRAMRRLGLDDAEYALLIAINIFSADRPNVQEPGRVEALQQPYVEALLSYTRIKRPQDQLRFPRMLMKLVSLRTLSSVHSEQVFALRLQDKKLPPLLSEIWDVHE

[21] = HepG2 cell cytotoxicity, dose response, cytotoxicity control, cherry-picked samples (AID 1159577); format: functional, cell-based

Chain of Nonstructural protein 1 (Q194T2 whole entry): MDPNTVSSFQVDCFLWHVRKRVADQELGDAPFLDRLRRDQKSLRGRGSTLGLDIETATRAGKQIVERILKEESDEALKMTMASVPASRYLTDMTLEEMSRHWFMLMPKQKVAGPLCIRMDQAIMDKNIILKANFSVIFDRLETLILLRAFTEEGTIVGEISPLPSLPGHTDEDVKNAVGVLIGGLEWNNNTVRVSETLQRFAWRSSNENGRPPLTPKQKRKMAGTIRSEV

With `c1ccc(-c2cnc(-c3ccccn3)nn2)cc1` the IC50 (Nonstructural protein 1) was 18.9 µM (active) and the AC50 [1] was 26 µM (active).
With `C[C@H](O)C#Cc1ccc2c(c1)O[C@H](CN(C)Cc1ccc(-c3ccccc3)cc1)[C@@H](C)CN([C@H](C)CO)S2(=O)=O` the AC50 (Paired box protein Pax-8) was 15.9 µM (active), the AC50 [2] was 16.7 µM (active) and the AC50 [3] was 59.6 µM (active). For the same compound, the AC50 [4] was 35.1 µM (active), the AC50 [5] was 7.51 µM (active) and the AC50 [6] was 6.13 µM (active).
For `C[C@@H]1CN([C@H](C)CO)S(=O)(=O)c2ccc(C#C[C@@H](C)O)cc2O[C@H]1CN(C)Cc1ccc(-c2ccccc2)cc1`, the AC50 [3] was > 60 µM (inactive) and the AC50 [4] was > 52 µM (inactive).
With `CCCNC(=O)N1[C@H](C#N)[C@H](c2ccc(-c3cccc(OC)c3)cc2)[C@@H]1CO` the AC50 [7] was 90.7 µM (active), the AC50 [8] was 1.4 µM (active) and the AC50 [9] was 0.56 µM (active). For the same compound, the AC50 [10] was 0.278 µM (active), the AC50 [11] was 0.168 µM (active) and the AC50 [12] was 25.5 µM (active). For the same compound, the AC50 [13] was 0.171 µM (active).
For `COc1ccc(NC2=C(C)C(=O)c3ccccc3C2=O)cc1`, the AC50 [14] was 0.533 µM (active), the AC50 [15] was > 70 µM (inactive) and the AC50 [16] was 14.3 µM (active).
In the case of `CC(C)(C)c1ccc(NC2=CC(=O)c3ccccc3C2=O)cc1`, the AC50 [14] is reported as 3.03 µM (active), the AC50 [15] is reported as > 70 µM (inactive) and the AC50 [16] is reported as 13.9 µM (active).
For `COC(=O)CCCCOc1ccc2cc(C#N)c(=O)oc2c1`, the IC50 [17] was > 100 µM (inactive) and the IC50 [18] was > 100 µM (inactive).
In the case of `Cc1cccc(NC(=O)c2coc(=O)c(Br)c2)n1`, the IC50 [17] is reported as 27.3 µM (inactive) and the IC50 [18] is reported as 45.8 µM (inactive).
For `Cn1/c(=N\C(=O)c2ccco2)sc2ccccc21`, the IC50 [19] was > 67.5 µM (inactive) and the EC50 [20] was > 67.5 µM (inactive).
With `COc1ccc2c3c(n(C)c2c1)[C@@H](CO)NCC31CN(Cc2ccc(-c3ccccn3)cc2)C1` the AC50 [9] was 1.66 µM (active) and the AC50 [21] was 20.4 µM (active).
